Results as given in patent US20230331691A1, “TREPROSTINIL DERIVATIVE COMPOUNDS AND METHODS OF USING SAME” (CORSAIR PHARMA, INC., priority 2013, published 2023).

Legend:
Type in all cases: in vitro ADME
[1] = Human liver microsomal stability assay (Test 1); details: human liver microsomes, 0.5 uM test compound, 37° C., up to 45 minutes, pH 7.4, NADPH generating system; read-out: Test 1 T½
Protocol: (§1) (Test 1) Human liver microsomal stability assay was conducted by incubating 0.5 uM test compounds at 37° C. for up to 45 minutes in 50 mM of potassium phosphate buffer (pH 7.4) containing 0.5 mg of microsomal protein and 50 µL of NADPH generating system (7.8 mg of glucose 6-phosphate, 1.7 mg of NADPH and 6 U of glucose 6-phosphate dehydrogenase per mL in 2% w/v of sodium bicarbonate). At 0, 5, 15, 30 and 45 min., an aliquot was taken, quenched with internal standard containing stop solution. No co-factor controls at 45 minutes were also prepared. After incubation, the samples were analyzed by LC-MS/MS. Peak area ratios of analyte to internal standard were used to calculate the intrinsic clearance. The intrinsic clearance (CLint) was determined from the first order elimination constant by non-linear regression. Formation of the active drug Compound A over the time course was also monitored by LC-MS/MS analysis.

[2] = Human plasma stability assay (Test 2); details: heparinated human plasma, 0.5 uM test compound, 37° C., up to 120 minutes; read-out: Test 2 T½
Protocol: (Test 2) Human plasma stability assay was conducted by incubating 0.5 uM test compounds at 37° C. for up to 120 minutes in heparinated human plasma. At 0, 5, 15, 30, 60 and 120 […] min., an aliquot was taken, quenched with internal standard containing stop solution. After incubation, the samples were analyzed by LC-MS/MS. Peak area ratios of analyte to internal standard were used to calculate the half-life. Formation of the active drug Compound A over the time course was also monitored by LC-MS/MS analysis.

[3] = Human skin homogenate stability assay (Test 3); details: 0.5 uM test compound, 37° C., up to 45 minutes, pH 7.4, NADPH generating system, read-out: Test 3 T½
Protocol: as §1, with “3)” for “1)”, “skin homogenate” for “liver microsomal”, “conducted in a similar way as the human liver microsomal stability assay,” for “conducted”, “human skin homogenate” for “microsomal”

Compound	half-life at 0.5 uM [1] [min]	half-life at 0.5 uM [2] [min]	half-life at 0.5 uM [3] [min]
CCCCC[C@H](O)CC[C@@H]1[C@H]2Cc3cccc(OCC(=O)NCCCO)c3C[C@H]2C[C@H]1O [Compound 11, 2-[2-Hydroxy-1-(3-hydroxy-octyl)-2,3,3a,4,9,9a-hexahydro-1H-cyclopenta[b]naphthalen-5-yloxy]-N-(3-hydroxy-propyl)-acetamide]	< 15	> 60	–
CCCCC[C@H](O)CC[C@@H]1[C@H]2Cc3cccc(OCC(=O)OC)c3C[C@H]2C[C@H]1O [Compound 15, [2-Hydroxy-1-(3-hydroxy-octyl)-2,3,3a,4,9,9a-hexahydro-1H-cyclopenta[b]naphthalen-5-yloxy]-acetic acid methyl ester]	< 15	< 15	< 15
CCCCC[C@H](O)CC[C@@H]1[C@H]2Cc3cccc(OCC(=O)OC4CCOC4)c3C[C@H]2C[C@H]1O (stereo partly shown) [Compound 5, [2-Hydroxy-1-(3-hydroxy-octyl)-2,3,3a,4,9,9a-hexahydro-1H-cyclopenta[b]naphthalen-5-yloxy]-acetic acid tetrahydro-furan-3-yl ester]	< 15	< 15	–
CCCCC[C@H](O)CC[C@@H]1[C@H]2Cc3cccc(OCC(=O)OCCO)c3C[C@H]2C[C@H]1O [Compound 9, [2-Hydroxy-1-(3-hydroxy-octyl)-2,3,3a,4,9,9a-hexahydro-1H-cyclopenta[b]naphthalen-5-yloxy]-acetic acid 2-hydroxy-ethyl ester]	< 15	–	–
CCCCC[C@H](O)CC[C@@H]1[C@H]2Cc3cccc(OCC(=O)OC)c3C[C@H]2C[C@H]1OC(C)=O [Compound 26, [2-Acetoxy-1-(3-hydroxy-octyl)-2,3,3a,4,9,9a-hexahydro-1H-cyclopenta[b]naphthalen-5-yloxy]-acetic acid methyl ester]	< 15	15 to 30	15 to 30
CCCCC[C@H](O)CC[C@@H]1[C@H]2Cc3cccc(OCC(=O)O[C@H](C)C(=O)OC)c3C[C@H]2C[C@H]1O [Compound 6, 2-{2-[2-Hydroxy-1-(3-hydroxy-octyl)-2,3,3a,4,9,9a-hexahydro-1H-cyclopenta[b]naphthalen-5-yloxy]-acetoxy}-propionic acid methyl ester]	< 15	< 15	–
CCCCC[C@H](O)CC[C@@H]1[C@H]2Cc3cccc(OCC(=O)NCC(=O)OC)c3C[C@H]2C[C@H]1O [Compound 12, {2-[2-Hydroxy-1-(3-hydroxy-octyl)-2,3,3a,4,9,9a-hexahydro-1H-cyclopenta[b]naphthalen-5-yloxy]-acetylamino}-acetic acid methyl ester]	< 15	> 60	–
CCCCC[C@H](O)CC[C@@H]1[C@H]2Cc3cccc(OCC(=O)OCCOC)c3C[C@H]2C[C@H]1O [Compound 10, [2-Hydroxy-1-(3-hydroxy-octyl)-2,3,3a,4,9,9a-hexahydro-1H-cyclopenta[b]naphthalen-5-yloxy]-acetic acid 2-methoxy-ethyl ester]	< 15	–	–
CCCCC[C@H](O)CC[C@@H]1[C@H]2Cc3cccc(OCC(=O)OCC4CC4)c3C[C@H]2C[C@H]1O [Compound 1, [2-Hydroxy-1-(3-hydroxy-octyl)-2,3,3a,4,9,9a-hexahydro-1H-cyclopenta[b]naphthalen-5-yloxy]-acetic acid cyclopropylmethyl ester]	< 15	< 15	–
CCCCC[C@H](O)CC[C@@H]1[C@H]2Cc3cccc(OCC(=O)NCCN)c3C[C@H]2C[C@H]1O [Compound 8, N-(2-Amino-ethyl)-2-[2-hydroxy-1-(3-hydroxy-octyl)-2,3,3a,4,9,9a-hexahydro-1H-cyclopenta[b]naphthalen-5-yloxy]-acetamide]	31 to 60	–	–
CCCCC[C@H](O)CC[C@@H]1[C@H]2Cc3cccc(OCC(=O)OCCCF)c3C[C@H]2C[C@H]1O [Compound 4, [2-Hydroxy-1-(3-hydroxy-octyl)-2,3,3a,4,9,9a-hexahydro-1H-cyclopenta[b]naphthalen-5-yloxy]-acetic acid 3-fluoro-propyl ester]	< 15	< 15	–

The next lines start with the values.

half-life at 0.5 uM [1] [min]	half-life at 0.5 uM [2] [min]	half-life at 0.5 uM [3] [min]	Compound
< 15	31 to 60	31 to 60	CCCCC[C@H](O)CC[C@@H]1[C@H]2Cc3cccc(OCC(=O)O[C@@H](C)C(C)C)c3C[C@H]2C[C@H]1O [Compound 63]
< 15	31 to 60	31 to 60	CCCCC[C@H](O)CC[C@@H]1[C@H]2Cc3cccc(OCC(=O)O[C@H](C)CC)c3C[C@H]2C[C@H]1O [Compound 60]
< 15	> 60	31 to 60	CCCCC[C@H](O)CC[C@@H]1[C@H]2Cc3cccc(OCC(=O)OC)c3C[C@H]2C[C@H]1OC(=O)OCC [Compound 25, [2-Ethoxycarbonyloxy-1-(3-hydroxy-octyl)-2,3,3a,4,9,9a-hexahydro-1H-cyclopenta[b]naphthalen-5-yloxy]-acetic acid methyl ester]
< 15	31 to 60	15 to 30	CCCCC[C@H](O)CC[C@@H]1[C@H]2Cc3cccc(OCC(=O)OC4CC5CCC4C5)c3C[C@H]2C[C@H]1O (stereo partly shown) [Compound 19, [2-Hydroxy-1-(3-hydroxy-octyl)-2,3,3a,4,9,9a-hexahydro-1H-cyclopenta[b]naphthalen-5-yloxy]-acetic acid bicyclo[2.2.1]hept-2-yl ester]
< 15	15 to 30	–	CCCCC[C@H](O)CC[C@@H]1[C@H]2Cc3cccc(OCC(=O)OC(C)(C)C)c3C[C@H]2C[C@H]1O [Compound 28, [2-Hydroxy-1-(3-hydroxy-octyl)-2,3,3a,4,9,9a-hexahydro-1H-cyclopenta[b]naphthalen-5-yloxy]-acetic acid tert-butyl ester]
< 15	15 to 30	15 to 30	CCCCC[C@H](O)CC[C@@H]1[C@H]2Cc3cccc(OCC(=O)OCC(C)(C)C)c3C[C@H]2C[C@H]1O [Compound 16, [2-Hydroxy-1-(3-hydroxy-octyl)-2,3,3a,4,9,9a-hexahydro-1H-cyclopenta[b]naphthalen-5-yloxy]-acetic acid 2,2-dimethyl-propyl ester]
< 15	> 60	–	CCCCC[C@H](O)CC[C@@H]1[C@H]2Cc3cccc(OCC(=O)OC)c3C[C@H]2C[C@H]1OC(=O)C1CC1 [Compound 24, Cyclopropanecarboxylic acid 1-(3-hydroxy-octyl)-5-methoxycarbonylmethoxy-2,3,3a,4,9,9a-hexahydro-1H-cyclopenta[b]naphthalen-2-yl ester]
< 15	> 60	–	CCCCC[C@H](O)CC[C@@H]1[C@H]2Cc3cccc(OCC(=O)OC)c3C[C@H]2C[C@H]1OC(=O)CCC(=O)OCC [Compound 27, Succinic acid ethyl ester 1-(3-hydroxy-octyl)-5-methoxycarbonylmethoxy-2,3,3a,4,9,9a-hexahydro-1H-cyclopenta[b]naphthalen-2-yl ester]
< 15	> 60	–	CCCCC[C@H](O)CC[C@@H]1[C@H]2Cc3cccc(OCC(=O)OC)c3C[C@H]2C[C@H]1OC(=O)CC(C)C [Compound 23, 3-Methyl-butyric acid 1-(3-hydroxy-octyl)-5-methoxycarbonylmethoxy-2,3,3a,4,9,9a-hexahydro-1H-cyclopenta[b]naphthalen-2-yl ester]
< 15	> 60	–	CCCCC[C@H](O)CC[C@@H]1[C@H]2Cc3cccc(OCC(=O)NCC(F)(F)C(F)(F)F)c3C[C@H]2C[C@H]1O [Compound 21, 2-[2-Hydroxy-1-(3-hydroxy-octyl)-2,3,3a,4,9,9a-hexahydro-1 H-cyclopenta[b]naphthalen-5-yloxy]-N-(2,2,3,3,3-pentafluoro-propyl)-acetamide]
